This note sets out measurements from patent publication US20110065706A1, “Therapeutic Agents 812” (AstraZeneca AB, priority 2009, published 2011).

For this experiment, the target named is T1, human GPR119 (Homo sapiens, UniProt Q8TDV5).
T1 construct: expressed in transfected cells; host or cells: HEK 293s
T1 sequence (Q8TDV5 1-335): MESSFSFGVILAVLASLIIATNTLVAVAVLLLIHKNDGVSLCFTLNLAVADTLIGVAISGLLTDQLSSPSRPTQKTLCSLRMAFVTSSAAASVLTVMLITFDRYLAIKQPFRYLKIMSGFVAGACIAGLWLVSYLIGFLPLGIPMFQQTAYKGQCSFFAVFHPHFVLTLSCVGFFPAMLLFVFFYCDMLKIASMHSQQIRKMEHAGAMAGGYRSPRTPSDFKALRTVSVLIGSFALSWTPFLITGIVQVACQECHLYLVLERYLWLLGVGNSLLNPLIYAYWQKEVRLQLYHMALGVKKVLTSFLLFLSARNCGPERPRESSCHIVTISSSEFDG
As to the kind of experiment: Cyclic AMP (HTRF cAMP) assay for human GPR119, Method A. It counts as cell-based. Particulars: for activation at 30 µM: HEK293S, 0.75 h, percent effect at top concentration 30 μM relative to maximum (50 μM Oleoylethanolamide) and minimum (1% DMSO) controls; for activation at 30 µM / EC50: Method A, HEK 293s cells over-expressing human GPR119; for EC50: midpoint of dose response curve, selected examples.

On to `CN1CCC(N(C)C(=O)c2ccc(COc3cnc(N4CCN(C(=O)OC(C)(C)C)CC4)nc3)cc2)CC1` [tert-butyl 4-[5-[[4-[methyl-(1-methyl-4-piperidyl)carbamoyl]phenyl]methoxy]pyrimidin-2-yl]piperazine-1-carboxylate], for which, under “human GPR119 cAMP assay, top concentration 30 μM”, the “significant activity at a top concentration of 30 μM” value was “did not show significant activity”.
As for `CC(C)(C)OC(=O)N1CCN(c2ncc(OCc3ccc([S+]([O-])C(F)(F)F)cc3)cn2)CC1` (stereo not drawn) [Example 91, Tert-butyl 4-(5-(4-(trifluoromethylsulfinyl)benzyloxy)pyrimidin-2-yl)piperazine-1-carboxylate], the activation at 30 µM worked out at 32%.
The same measure, in the same setting: to `CC(C)OC(=O)N1CCN(c2ncc(OCc3ccncc3C#N)cn2)CC1` [Example 58, isopropyl 4-(5-((3-cyanopyridin-4-yl)methoxy)pyrimidin-2-yl)piperazine-1-carboxylate] belongs 154%.
With `CC(OC(=O)N1CCN(c2ncc(OCc3ccc(S(C)(=O)=O)cc3)cn2)[C@H](C)C1)C(F)(F)F` (stereo partly drawn) [Example 67, (3R)-1,1,1-trifluoropropan-2-yl 3-methyl-4-(5-(4-(methylsulfonyl)benzyloxy)pyrim-idin-2-yl)piperazine-1-carboxylate], the activation at 30 µM turned out to be 60% and a half-maximal effect (EC50) was put at 39 nM.
As for `C[C@@H]1CN(C(=O)OC2COC2)CCN1c1ncc(OCc2ccc(S(C)(=O)=O)cc2)cn1` [Example 76, (R)-oxetan-3-yl 3-methyl-4-(5-(4-(methylsulfonyl)benzyloxy)pyrimidin-2-yl)piperazine-1-carboxylate], the activation at 30 µM stood at 30%.
On the same count and under the same terms, to `C[C@@H]1CN(C(=O)OC(C)(C)C)CCN1c1ncc(OCc2ccc(S(C)(=O)=O)cc2)cn1` [Example 18, (R)-Tert-butyl 3-methyl-4-(5-(4-(methylsulfonyl)benzyloxy)pyrimidin-2-yl)piperazine-1-carboxylate] belongs 155%.
As to `CS(=O)(=O)c1ccc(COc2cnc(N3CCN(c4ncc(F)cn4)CC3)nc2)cc1` [Example 42, 5-fluoro-2-(4-(5-(4-(methylsulfonyl)benzyloxy)pyrim-idin-2-yl)piperazin-1-yl)pyrimidine], the activation at 30 µM was 64% and it took 156 nM to reach a half-maximal effect (EC50).
Turning to `CC(C)(C)OC(=O)N1CCN(c2ncc(OCc3ccc(OS(C)(=O)=O)cc3)cn2)CC1` [Example 17, tert-butyl 4-(5-(4-(methyl-sulfonyloxy)benzyloxy)pyrimidin-2-yl)piperazine-1-carboxylate], the activation at 30 µM came out at 65% and a half-maximal response (EC50) required 20 nM.
For `Cc1nc(-c2ccc(COc3cnc(N4CCN(C(=O)OC(C)(C)C)CC4)nc3)cc2)no1` [Example 4, tert-butyl 4-(5-(4-(5-methyl-1,2,4-oxadiazol-3-yl)benzyloxy)pyrimidin-2-yl)piperazine-1-carboxylate], the activation at 30 µM turned out to be 69%.
Compound `CC(C)(C)OC(=O)N1CCN(c2ncc(OCc3ccc(-n4cnnn4)cc3)cn2)CC1` [Example 7, Tert-butyl 4-(5-(4-(1H-tetrazol-1-yl)benzyloxy)pyrimidin-2-yl)piperazine-1-carboxylate] returned an activation at 30 µM of 170%.
As to `CCS(=O)(=O)c1ccc(COc2cnc(N3CCN(C(=O)OC(C)(C)C)CC3)nc2)cc1` [Example 83, Tert-butyl 4-(5-(4-(ethylsulfonyl)benzyloxy)pyrimidin-2-yl)piperazine-1-carboxylate], the activation at 30 µM stood at 66% and the EC50 (usually the midpoint of the concentration-response curve) is 123 nM.
The corresponding values for `C[C@@H]1CN(C(=O)OC2CCOCC2)CCN1c1ncc(OCc2ccncc2C#N)cn1` [Example 82, (R)-Tetrahydro-2H-pyran-4-yl 4-(5-((3-cyanopyridin-4-yl)methoxy)pyrimidin-2-yl)-3-methylpiperazine-1-carboxylate] are 102% and 675 nM.
`CC(C)c1nc(N2CCN(c3ncc(OCc4ccc(S(C)(=O)=O)cc4)cn3)CC2)no1` [Example 87, 5-Isopropyl-3-(4-(5-(4-(methylsulfonyl)benzyloxy)pyrimidin-2-yl)piperazin-1-yl)-1,2,4-oxadiazole] had an activation at 30 µM of 48%.
